Values of other authors in patent US20030143266A1, “Cationic amphiphile micellar complexes” (GENZYME CORPORATION, priority 1999, published 2003).

Tested on: airway epithelial cells
Settings: shown by elevation of cGMP levels, CFTR-dependent chloride transport, ciliary beat frequency

Substance: CNP-22: C-type natriuretic peptide containing 22 amino acid; binds and activates guanylate cyclase-B receptor
- binding to airway epithelial cells in vivo: Specific binding
